Where two headings read alike, the source gives them in different places.
Tests used:
[1] = logP determination by HPLC on a reversed-phase column (EEC Directive 79/831 Annex V.A8); assay type: physicochemical; conditions: for chromatographic logP: read-out: logP (pH2)
Procedure: The logP values given in the Preparation Examples and the tables above are determined in accordance with EEC Directive 79/831 Annex V.A8 by HPLC (High Performance Liquid Chromatography) on a reversed-phase column (C 18). Temperature: 43° C.
The determination is carried out in the acidic range at pH 2.3 using the mobile phases 0.1% aqueous phosphoric acid and acetonitrile; linear gradient from 10% acetonitrile to 90% acetonitrile.
Calibration is carried out using unbranched alkan-2-ones (having 3 to 16 carbon atoms) with known logP values (determination of the logP values by the retention times using linear interpolation between two successive alkanones).

[2] = tested on: larvae of the mustard beetle (Phaedon cochleariae); assay: Phaedon larvae test; assay type: in vivo; conditions: active compound concentration 500 ppm, after 7 days, dipped cabbage leaves
Procedure: (§1) Phaedon Larvae Test Solvent: 7 parts by weight of dimethylformamide Emulsifier: 2 parts by weight of alkylaryl polyglycol ether To produce a suitable preparation of active compound, 1 part by weight of active compound is mixed with the stated amounts of solvent and emulsifier, and the concentrate is diluted with emulsifier-containing water to the desired concentration. Cabbage leaves (Brassica oleracea) are treated by being dipped into the preparation of active compound of the desired concentration and are populated with larvae of the mustard beetle (Phaedon cochleariae) while the leaves are still moist. After the desired period of time, the kill in % is determined. 100% means that all beetle larvae have been killed; 0% means that none of the beetle larvae have been killed.

[3] = tested on: caterpillars of the army worm (Spodoptera frugiperda); assay: Spodoptera frugiperda test; assay type: in vivo; conditions: active compound concentration 500 ppm, after 7 days, dipped cabbage leaves
Procedure: as §1, with “Spodoptera Frugiperda” for “Phaedon Larvae”, “caterpillars” for “larvae”, “army worm (Spodoptera frugiperda)” for “mustard beetle (Phaedon cochleariae)”, “caterpillars” for “beetle larvae”

[4] = HPLC, reversed-phase C 18, 43° C., acidic range pH 2.3, 0.1% aqueous phosphoric acid/acetonitrile
[5] = reversed-phase C18 HPLC column, HPLC, reversed-phase C 18, 43° C., acidic range pH 2.3, 0.1% aqueous phosphoric acid/acetonitrile

Compound | chromatographic logP [1, 5] | kill in % [3] [%] | also measured
4-(5-tert-butyltetrazol-2-yl)nitrobenzene | – | – | logP (pH2) [1, 4]: 2.20
CC(C)(C)n1nnc(-c2ccc(N)cc2)n1 [4-(2-tert-butyltetrazol-5-yl)aniline] | 1.69 | – | –
CC(C)(C)c1noc(-c2ccc(N)cc2)n1 [4-(3-tert-butyl[1,2,4]oxadiazol-5-yl)aniline] | 2.54 | – | –
CC(C)(C)c1nc(-c2ccc(NC(=O)N3CC(n4cc(C#N)cn4)C(c4ccc(Cl)cc4)=N3)cc2)no1 (stereo not drawn) [Compound 2, N-[4-(5-tert-butyl[1.2.4]oxadiazol-3-yl)-phenyl]-3-(4-chlorophenyl)-4-(4-cyanopyrazol-1-yl)-4,5-dihydro-1-pyrazolecarboxamide] | – | 100 | kill in % [2]: 100%; logP (pH2) ([1]; pH 2.3): 4.33
N#Cc1cnn(CC(=O)c2ccc(Cl)cc2)c1 [2-(4-cyanopyrazol-1-yl)-4′-chloroacetophenone] | – | – | chromatographic logP [1, 4]: 2.2
N#Cc1cnn(C2CNN=C2c2ccc(Cl)cc2)c1 (stereo not drawn) [3-(4-chlorophenyl)-4-(4-cyanopyrazol-1-yl)-4,5-dihydro-1H-pyrazole] | 2.11 | – | –
CC(C)(C)c1nc(-c2ccc(N)cc2)no1 [4-(5-tert-butyl[1,2,4]oxadiazol-3-yl)aniline] | 2.31 | – | –
CC(C)(C)c1noc(-c2ccc(NC(=O)N3CC(n4cc(C#N)cn4)C(c4ccc(Cl)cc4)=N3)cc2)n1 (stereo not drawn) [Compound 3, N-[4-(3-tert-butyl[1,2,4]oxadiazol-5-yl)-phenyl]-3-(4-chlorophenyl)-4-(4-cyanopyrazol-1-yl)-4,5-dihydro-1-pyrazolecarbox-amide] | – | 100 | logP (pH2) ([1]; pH 2.3): 4.38

More lines, main results first:

chromatographic logP [1, 5] | Compound | kill in % [3] [%] | also measured
4.27 | CC(C)(C)c1nnn(-c2ccc(NC(=O)N3CC(n4cc(C#N)cn4)C(c4ccc(Cl)cc4)=N3)cc2)n1 (stereo not drawn) [Compound 5, N-[4-(5-tert-butyltetrazol-2-yl)phenyl]-3-(4-chlorophenyl)-4-(4-cyanopyrazol-1-yl)-4,5-dihydro-1-pyrazolecarboxamide] | – | –
3.91 | CC(C)(C)n1nnc(-c2ccc(NC(=O)N3CC(n4cc(C#N)cn4)C(c4ccc(Cl)cc4)=N3)cc2)n1 (stereo not drawn) [Compound 4, N-[4-(2-tert-butyltetrazol-5-yl)phenyl]-3-(4-chlorophenyl)-4-(4-cyanopyrazol-1-yl)-4,5-dihydro-1-pyrazolecarboxamide] | 100 | kill in % [2]: 100%
2.27 | CC(C)(C)c1nnn(-c2ccc(N)cc2)n1 [4-(5-tert-butyltetrazol-2-yl)aniline] | – | –
4.11 | N#Cc1cnn(C2CN(C(=O)Nc3ccc(-c4ccccc4)cc3)N=C2c2ccc(Cl)cc2)c1 (stereo not drawn) [Compound 1, N-(4-phenyl)-3-(4-chlorophenyl)-4-(4-cyanopyrazol-1-yl)-4,5-dihydro-1-pyrazolecarboxanilide] | 100 | –
